Here are results for 18 molecules from patent publication US20250154138A1, “Small Molecule IL-17A Modulators” (BeiGene, Ltd., priority 2022, published 2025).

In test [1] the test system is IL-17-induced GROα secretion from HT-29 cells. The test can be described thus: GROα release assay in human colorectal adenocarcinoma epithelial cell (HT-29, ELISA). It is filed as cell-based. The conditions noted are these: Homo sapiens, HT-29, 48 h, 10 ng/mL IL-17A, highest concentration 10 μM, read-out: Cellular assay HT29 cell/CXCL1 IC50. The protocol:
The purpose of the assay is to test the ability of a compound to neutralize IL17A proteins. IL17 can stimulate human epithelial cells to secrete GROα. The ability of one compound of the invention to neutralize IL-17-induced GROα secretion from the human colorectal adenocarcinoma epithelia cell line HT-29 is tested in this assay.
HT-29 cells (human colorectal adenocarcinoma epithelia cell, ATCC) were stimulated with IL-17A (Novoprotein, #C774) in final concentration of 10 ng/mL. The resultant GROα response was measured using an ELISA kit from Invitrogen (#88-52122). HT-29 cells were cultured in complete medium (McCoy's 5A medium+10% FBS) and maintained in a tissue culture flask using standard techniques. On day 1, detached the cell by using TrypLE (Gibco, #12605036) and used the complete medium to neutralize. The cells were centrifuged at 11,00 rmp for 4 minutes. Re-suspended the cell pellet in complete medium and seeded 50,000 HT-29 cells into the 96-well assay plate (Corning, 3599) at 135 μL complete medium per well. The cells were incubated for overnight, at 37° C./5% CO2 to adherent the plate. On day 2, prepared a 4-fold serial dilution of the tested compound in DMSO. The highest concentration of the compound was 10 μM. Transferred 2 μL of the serial diluted compound from the serial dilution plate into the reagent plate which was contained 198 μL complete medium with 100 ng/mL IL-17A per well. The compounds were incubated with the IL-17A for 15 minutes. 15 μL mixtures from reagent plate were transferred into the cell assay plate. Incubated the plate at 37° C./5% CO2 for 48 hours. After the incubation, on day 4, GROα level were measured with GROα ELISA as the manufacturer's instructions. 50 μL supernatant was collected form the assay plate to ELISA plate. ELISA plate was read at 450 nm on a microplate reader and compared to a standard calibration curve.
Data were processed using GraphPad Prism. GROα concentration was calculated from the standard curve. IC50 was determined using the equation log concentration (inhibitor) against response and fitted to four parameters.
For orientation: ELISA stands for enzyme-linked immunosorbent assay.

Test [2] has as its target human IL-17A / human IL-17RA (Homo sapiens (Human), UniProt Q16552). The test can be described thus: Human IL-17A biochemical assay (HTRF, blocking of IL-17A binding to IL-17RA). To be noted: 0.4 nM IL-17A, 0.3 nM IL-17RA, max compound concentration 10 uM. Put shortly: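 In this time-resolved fluorescence format, the cytokine (0.4 nM) is exposed to compound for 3 h before 0.3 nM receptor is added for 1 h, with all incubations at room temperature in HEPES buffer, pH 7.5. The 620/665 nm signal ratio gives percent inhibition, and IC50 is taken from a 4-parameter curve.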

Sequence of human IL-17A / human IL-17RA (Q16552 24-155): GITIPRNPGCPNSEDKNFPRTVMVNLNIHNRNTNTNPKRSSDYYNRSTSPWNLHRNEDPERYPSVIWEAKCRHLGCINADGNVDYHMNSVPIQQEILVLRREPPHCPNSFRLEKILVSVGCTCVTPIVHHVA

Take `CNC(=O)C1(N2CCNC2=O)Cc2ccc(NC(=O)[C@@H](NC(=O)c3ccnn3C)C3CCCCC3)cc2C1` (stereo partly drawn) [Example 13, N-((1S)-1-cyclohexyl-2-((2-(methylcarbamoyl)-2-(2-oxoimidazolidin-1-yl)-2,3-dihydro-1H-inden-5-yl)amino)-2-oxoethyl)-1-methyl-1H-pyrazole-5-carboxamide]: the values for the IC50 in test [1] and in test [2] were 1500 nM and 1800 nM, respectively.

Turning to `CNC(=O)C1(N2CC(C)NC2=O)Cc2cc3nc([C@@H](NC(=O)c4nonc4C)C4CCCCC4)[nH]c3cc2C1` (stereo partly drawn) [Example 14, N-((1S)-cyclohexyl(6-(4-methyl-2-oxoimidazolidin-1-yl)-6-(methylcarbamoyl)-1,5,6,7-tetrahydroindeno[5,6-d]imidazol-2-yl)methyl)-4-methyl-1,2,5-oxadiazole-3-carboxamide], the IC50 in test [1] is 300 nM; in test [2], 150 nM.

`CC1CN(C2(C(N)=O)Cc3ccc(NC(=O)[C@@H](NC(=O)c4ccnn4C)C4CCCCC4)cc3C2)C(=O)N1` (stereo partly drawn) [Example 15, N-((1S)-2-((2-carbamoyl-2-(4-methyl-2-oxoimidazolidin-1-yl)-2,3-dihydro-1H-inden-5-yl)amino)-1-cyclohexyl-2-oxoethyl)-1-methyl-1H-pyrazole-5-carboxamide]: the IC50 is 1240 nM in test [1] and 550 nM in test [2].

As for `CNC(=O)C1(N2C(=O)NCC2C)Cc2ccc(NC(=O)[C@@H](NC(=O)c3ccnn3C)C3CCCCC3)cc2C1` (stereo partly drawn) [Example 17, N-((1S)-1-cyclohexyl-2-((2-(5-methyl-2-oxoimidazolidin-1-yl)-2-(methylcarbamoyl)-2,3-dihydro-1H-inden-5-yl)amino)-2-oxoethyl)-1-methyl-1H-pyrazole-5-carboxamide], the IC50 was found to be 2640 nM in test [1] and 2500 nM in test [2].

In the case of `CC[C@H]1CN(C2(C(=O)NC)Cc3ccc(NC(=O)[C@@H](NC(=O)c4ccnn4C)C4CCCCC4)cc3C2)C(=O)N1` (stereo partly drawn) [Example 18, N-((1S)-1-cyclohexyl-2-((2-((S)-4-ethyl-2-oxoimidazolidin-1-yl)-2-(methylcarbamoyl)-2,3-dihydro-1H-inden-5-yl)amino)-2-oxoethyl)-1-methyl-1H-pyrazole-5-carboxamide], the IC50 in test [1] was determined as 2550 nM; in test [2], 1000 nM.

For the molecule `CC[C@@H]1CN(C2(C(=O)NC)Cc3ccc(NC(=O)[C@@H](NC(=O)c4ccnn4C)C4CCCCC4)cc3C2)C(=O)N1` (stereo partly drawn) [Example 19, N-((1S)-1-cyclohexyl-2-((2-((R)-4-ethyl-2-oxoimidazolidin-1-yl)-2-(methylcarbamoyl)-2,3-dihydro-1H-inden-5-yl)amino)-2-oxoethyl)-1-methyl-1H-pyrazole-5-carboxamide], the figures for the IC50 in test [1] and in test [2] were 262 nM and 60 nM, respectively.

Turning to `CNC(=O)C1(N2CC(C)(C)NC2=O)Cc2ccc(NC(=O)[C@@H](NC(=O)c3ccnn3C)C3CCCCC3)cc2C1` (stereo partly drawn) [Example 20, N-((1S)-1-cyclohexyl-2-((2-(4,4-dimethyl-2-oxoimidazolidin-1-yl)-2-(methylcarbamoyl)-2,3-dihydro-1H-inden-5-yl)amino)-2-oxoethyl)-1-methyl-1H-pyrazole-5-carboxamide], the IC50 in test [1] amounted to 476 nM; in test [2], 980 nM.

`CC1CN(C2(CO)Cc3ccc(NC(=O)[C@@H](NC(=O)c4ccnn4C)C4CCCCC4)cc3C2)C(=O)N1` (stereo partly drawn) [Example 22, N-((1S)-1-cyclohexyl-2-((2-(hydroxymethyl)-2-(4-methyl-2-oxoimidazolidin-1-yl)-2,3-dihydro-1H-inden-5-yl)amino)-2-oxoethyl)-1-methyl-1H-pyrazole-5-carboxamide]: the IC50 in test [1] amounted to 7120 nM; in test [2], 950 nM.

Regarding `CC1CN(C2(C(=O)O)Cc3ccc(NC(=O)[C@@H](NC(=O)c4ccnn4C)C4CCCCC4)cc3C2)C(=O)N1` (stereo partly drawn) [Example 23, 5-((S)-2-cyclohexyl-2-(1-methyl-1H-pyrazole-5-carboxamido)acetamido)-2-(4-methyl-2-oxoimidazolidin-1-yl)-2,3-dihydro-1H-indene-2-carboxylic acid], the IC50 in test [1] was 3660 nM; in test [2] it was 640 nM.

As for `CCCC1CN(C2(C(=O)NC)Cc3ccc(NC(=O)[C@@H](NC(=O)c4ccnn4C)C4CCCCC4)cc3C2)C(=O)N1` (stereo partly drawn) [Example 26, N-((1S)-1-cyclohexyl-2-((2-(methylcarbamoyl)-2-(2-oxo-4-propylimidazolidin-1-yl)-2,3-dihydro-1H-inden-5-yl)amino)-2-oxoethyl)-1-methyl-1H-pyrazole-5-carboxamide], the IC50 in test [1] is 1080 nM; in test [2] it was 360 nM.

For the molecule `CNC(=O)C1(N2CC(C3CCC3)NC2=O)Cc2ccc(NC(=O)[C@@H](NC(=O)c3ccnn3C)C3CCCCC3)cc2C1` (stereo partly drawn) [Example 27, N-((1S)-2-((2-(4-cyclobutyl-2-oxoimidazolidin-1-yl)-2-(methylcarbamoyl)-2,3-dihydro-1H-inden-5-yl)amino)-1-cyclohexyl-2-oxoethyl)-1-methyl-1H-pyrazole-5-carboxamide], the IC50 in test [1] turned out to be 982 nM; in test [2] it was 160 nM.

With `CNC(=O)C1(N2CC(C(C)C)NC2=O)Cc2cc3nc([C@@H](NC(=O)c4ccnn4C)C4CCCCC4)[nH]c3cc2C1` (stereo partly drawn) [Example 28, 2-((S)-cyclohexyl(1-methyl-1H-pyrazole-5-carboxamido)methyl)-6-(4-isopropyl-2-oxoimidazolidin-1-yl)-N-methyl-1,5,6,7-tetrahydroindeno[5,6-d]imidazole-6-carboxamide], the IC50 in test [1] was found to be 76.5 nM; in test [2], 394 nM.

With `CNC(=O)C1(N2CC(C(C)C)NC2=O)Cc2cc3nc([C@@H](NC(=O)c4nonc4C)C4CCCCC4)[nH]c3cc2C1` (stereo partly drawn) [Example 29, N-((1S)-cyclohexyl(6-(4-isopropyl-2-oxoimidazolidin-1-yl)-6-(methylcarbamoyl)-1,5,6,7-tetrahydroindeno[5,6-d]imidazol-2-yl)methyl)-4-methyl-1,2,5-oxadiazole-3-carboxamide], the IC50 in test [1] is 146 nM; in test [2], 160 nM.

Consider `CNC(=O)C1(N2CC(C(C)C)NC2=O)Cc2ccc(NC(=O)[C@@H](NC(=O)c3nonc3C)C3CCCCC3)cc2C1` (stereo partly drawn) [Example 30, N-((1S)-1-cyclohexyl-2-((2-(4-isopropyl-2-oxoimidazolidin-1-yl)-2-(methylcarbamoyl)-2,3-dihydro-1H-inden-5-yl)amino)-2-oxoethyl)-4-methyl-1,2,5-oxadiazole-3-carboxamide], for which the IC50 turned out to be 576 nM in test [1] and 58 nM in test [2].

With `CC[C@@H]1CN(C2(C(=O)NC)Cc3cc4nc([C@@H](NC(=O)c5ccnn5C)C5CCCCC5)[nH]c4cc3C2)C(=O)N1` [Example 31, 2-((S)-cyclohexyl(1-methyl-1H-pyrazole-5-carboxamido)methyl)-6-((R)-4-ethyl-2-oxoimidazolidin-1-yl)-N-methyl-1,5,6,7-tetrahydroindeno[5,6-d]imidazole-6-carboxamide], the IC50 in test [1] is 116 nM; in test [2], 203 nM.

`CC[C@@H]1CN(C2(C(=O)NC)Cc3cc4nc([C@@H](NC(=O)c5nonc5C)C5CCCCC5)[nH]c4cc3C2)C(=O)N1` [Example 32, N-((1S)-cyclohexyl(6-((R)-4-ethyl-2-oxoimidazolidin-1-yl)-6-(methylcarbamoyl)-1,5,6,7-tetrahydroindeno[5,6-d]imidazol-2-yl)methyl)-4-methyl-1,2,5-oxadiazole-3-carboxamide]: the results for the IC50 in test [1] and in test [2] were 135 nM and 62 nM, respectively.

For `CNC(=O)C1(N2CC(C(C)COC)NC2=O)Cc2ccc(NC(=O)[C@@H](NC(=O)c3ccnn3C)C3CCCCC3)cc2C1` (stereo partly drawn) [Example 35, N-((1S)-1-cyclohexyl-2-((2-(4-(1-methoxypropan-2-yl)-2-oxoimidazolidin-1-yl)-2-(methylcarbamoyl)-2,3-dihydro-1H-inden-5-yl)amino)-2-oxoethyl)-1-methyl-1H-pyrazole-5-carboxamide], the IC50 in test [1] came to 2020 nM; in test [2] it was 293 nM.

As for `CNC(=O)C1(N2C[C@@H](Cc3ccccc3)NC2=O)Cc2ccc(NC(=O)[C@@H](NC(=O)c3ccnn3C)C3CCCCC3)cc2C1` (stereo partly drawn) [Example 37, N-((1S)-2-((2-((R)-4-benzyl-2-oxoimidazolidin-1-yl)-2-(methylcarbamoyl)-2,3-dihydro-1H-inden-5-yl)amino)-1-cyclohexyl-2-oxoethyl)-1-methyl-1H-pyrazole-5-carboxamide], the results for the IC50 in test [1] and in test [2] were 1480 nM and 112 nM, respectively.
